Laboratory results: US20240327430A1 (Breakpoint Therapeutics GmbH, priority 2023, published 2024)

Target: truncated Polθ protein (Polθ-Hel containing the helicase domain (67-894)) (Homo sapiens (Human), UniProt O75417)
Assay: Polθ ATPase assay (Biological Assay 1, ADP-Glo luminescence)
Type: biochemical
Conditions: Polθ-Hel 0.5 nM, DNA substrate 500 nM, ATP 60 μM, 23° C.; read-out: Pole ATPase assay IC50
Description: The Polθ ATPase assay was used to evaluate inhibitors of Polθ ATPase activity, in vitro. Experiments were performed using a truncated Polθ protein (Polθ-Hel containing the helicase domain (67-894), ATP and a DNA single strand Oligo (5′-CTGTCCTGCATGATG-3′) in the Polθ assay buffer (20 mM Tis-HCl (pH 8.8), MgCl2 5 mM, tween20 0.01%, NP40 0.01%, BSA 0.01%, DTT 1 mM). 2 μL of assay buffer containing Pole-Hel protein (0.5 nM) and DNA substrate (500 nM) was transferred into assay ready plates, containing 0.04 μL of compounds diluted in DMSO. After a 30 minutes incubation at 23° C. in the dark, the reaction was triggered by adding 2 μL of ATP (60 μM), in assay buffer. After 60 minutes at 23° C., 4 μl of ADP-Glo™ Reagent (Glo 1) was added followed by 40 minutes of incubation, then 8 μl of ADP-Glom kinase Detection Reagent (Glo 2) followed by 60 minutes of incubation at 23° C. Luminescence was then measured using Tecan F200 infinite plate reader. Raw data were analysed using GeneData to generate IC50 values.
The Polθ ATPase assay described in Biological Assay 1 above was used to evaluate inhibitors of Polθ ATPase activity for the compounds described in the Experimental Part B above, in vitro.

truncated Polθ protein (Polθ-Hel containing the helicase domain (67-894)), sequence (O75417 67-894): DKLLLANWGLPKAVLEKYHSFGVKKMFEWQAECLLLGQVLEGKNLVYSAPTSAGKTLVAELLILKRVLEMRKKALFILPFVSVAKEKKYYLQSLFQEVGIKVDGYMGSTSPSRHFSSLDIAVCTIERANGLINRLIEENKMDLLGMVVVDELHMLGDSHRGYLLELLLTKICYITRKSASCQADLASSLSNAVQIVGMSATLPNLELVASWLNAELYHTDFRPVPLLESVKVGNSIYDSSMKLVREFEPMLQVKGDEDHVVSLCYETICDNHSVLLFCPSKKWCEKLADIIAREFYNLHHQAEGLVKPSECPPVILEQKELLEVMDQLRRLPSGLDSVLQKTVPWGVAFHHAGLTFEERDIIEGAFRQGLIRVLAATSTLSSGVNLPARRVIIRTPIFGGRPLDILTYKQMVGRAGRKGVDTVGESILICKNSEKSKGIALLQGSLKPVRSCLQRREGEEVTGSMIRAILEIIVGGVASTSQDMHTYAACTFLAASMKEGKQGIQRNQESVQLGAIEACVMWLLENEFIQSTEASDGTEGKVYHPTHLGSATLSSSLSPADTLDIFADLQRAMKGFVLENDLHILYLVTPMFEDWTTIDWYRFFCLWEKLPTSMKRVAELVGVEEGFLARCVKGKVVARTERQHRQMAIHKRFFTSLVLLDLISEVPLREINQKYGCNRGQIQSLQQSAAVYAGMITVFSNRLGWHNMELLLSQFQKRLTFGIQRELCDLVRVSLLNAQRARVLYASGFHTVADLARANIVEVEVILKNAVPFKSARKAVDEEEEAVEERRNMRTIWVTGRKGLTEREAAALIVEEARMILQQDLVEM

Row | Compound | IC50 [nM]
1 | COc1cnc(Cl)cc1-c1cc(C)ncc1C(=O)Nc1nc2cnc(N[C@@H]3CC[C@H](O)C3)nc2s1 (racemic) [Example 49, rac-2′-chloro-N-(5-{[(1R,3S)-3-hydroxycyclopentyl]amino}-[1,3]thiazolo[5,4-d]pyrimidin-2-yl)-5′-methoxy-6-methyl-[4,4′-bipyridine]-3-carboxamide] | < 100
2 | COc1cnc(Cl)cc1-c1cc(C)ncc1C(=O)Nc1nc2ccc(Cl)cc2s1 [Example 1, N-(6-chloro-1,3-benzothiazol-2-yl)-4-(2-chloro-5-methoxy-4-pyridyl)-6-methyl-pyridine-3-carboxamide] | < 100
3 | COc1cnc(Cl)cc1-c1cc(C)ncc1C(=O)Nc1nc2ccc(S(C)(=O)=O)cc2s1 [Example 2, 2′-chloro-N-(6-methanesulfonyl-1,3-benzothiazol-2-yl)-5′-methoxy-6-methyl-[4,4′-bipyridine]-3-carboxamide] | < 100
4 | COc1cnc(Cl)cc1-c1cc(C)ncc1C(=O)Nc1nc2ccc(C#N)cc2s1 [Example 3, 2′-chloro-N-(6-cyano-1,3-benzothiazol-2-yl)-5′-methoxy-6-methyl-[4,4′-bipyridine]-3-carboxamide] | < 100
5 | COc1cnc(Cl)cc1-c1cc(C)ncc1C(=O)Nc1nc2ccc(Br)cc2s1 [Example 5, N-(6-bromo-1,3-benzothiazol-2-yl)-2′-chloro-5′-methoxy-6-methyl-[4,4′-bipyridine]-3-carboxamide] | < 100
6 | COc1cnc(Cl)cc1-c1cc(C)ncc1C(=O)Nc1nc2cnc(Cl)nc2s1 [Example 6, 2′-chloro-N-{5-chloro-[1,3]thiazolo[5,4-d]pyrimidin-2-yl}-5′-methoxy-6-methyl-[4,4′-bipyridine]-3-carboxamide] | < 100
7 | COc1cnc(Cl)cc1-c1cc(C)ncc1C(=O)Nc1nc2ccc(Cl)nc2s1 [Example 7, 2′-chloro-N-{5-chloro-[1,3]thiazolo[5,4-b]pyridin-2-yl}-5′-methoxy-6-methyl-[4,4′-bipyridine]-3-carboxamide] | < 100
8 | COc1ccccc1-c1cnccc1C(=O)Nc1nc2cncnc2s1 [Example 8, 3-(2-methoxyphenyl)-N-{[1,3]thiazolo[5,4-d]pyrimidin-2-yl}pyridine-4-carboxamide] | 100 to 1000
9 | COc1ccccc1-c1cnccc1C(=O)Nc1nc2ccc(Br)cc2s1 [Example 9, N-(6-bromo-1,3-benzothiazol-2-yl)-3-(2-methoxyphenyl)pyridine-4-carboxamide] | 100 to 1000
10 | COc1ccccc1-c1cnccc1C(=O)Nc1nc2cnccc2s1 [Example 10, 3-(2-methoxyphenyl)-N-{[1,3]thiazolo[4,5-c]pyridin-2-yl}pyridine-4-carboxamide] | > 1000
11 | COc1ccccc1-c1cnccc1C(=O)Nc1nc2ncccc2s1 [Example 11, 3-(2-methoxyphenyl)-N-{[1,3]thiazolo[4,5-b]pyridin-2-yl}pyridine-4-carboxamide] | > 1000
12 | COc1ccccc1-c1cnccc1C(=O)Nc1nc2cc(C(F)(F)F)ccc2s1 [Example 12, 3-(2-methoxyphenyl)-N-[5-(trifluoromethyl)-1,3-benzothiazol-2-yl]pyridine-4-carboxamide] | > 1000
13 | COc1ccccc1-c1cnccc1C(=O)Nc1nc2cc(Cl)ccc2s1 [Example 13, N-(5-chloro-1,3-benzothiazol-2-yl)-3-(2-methoxyphenyl)pyridine-4-carboxamide] | > 1000
14 | COc1ccccc1-c1cnccc1C(=O)Nc1nc2cccnc2s1 [Example 14, 3-(2-methoxyphenyl)-N-{[1,3]thiazolo[5,4-b]pyridin-2-yl}pyridine-4-carboxamide] | > 1000
15 | COc1cnc(Cl)cc1-c1cc(C)ncc1C(=O)Nc1nc2ccc(N3CCOCC3)cc2s1 [Example 17, 2′-chloro-5′-methoxy-6-methyl-N-[6-(morpholin-4-yl)-1,3-benzothiazol-2-yl]-[4,4′-bipyridine]-3-carboxamide] | < 100
16 | COc1cnc(Cl)cc1-c1cc(C)ncc1C(=O)Nc1nc2cnc(N3CCCCC3)nc2s1 [Example 20, 2′-chloro-5′-methoxy-6-methyl-N-[5-(piperidin-1-yl)-[1,3]thiazolo[5,4-d]pyrimidin-2-yl]-[4,4′-bipyridine]-3-carboxamide] | < 100

Row | Compound | IC50 [nM]
17 | COc1cnc(Cl)cc1-c1cc(C)ncc1C(=O)Nc1nc2cnc(N3CCC(F)(F)CC3)nc2s1 [Example 21, 2′-chloro-N-[5-(4,4-difluoropiperidin-1-yl)-[1,3]thiazolo[5,4-d]pyrimidin-2-yl]-5′-methoxy-6-methyl-[4,4′-bipyridine]-3-carboxamide] | < 100
18 | COc1cnc(Cl)cc1-c1cc(C)ncc1C(=O)Nc1nc2cnc(N3CCOCC3)nc2s1 [Example 22, 2′-chloro-5′-methoxy-6-methyl-N-[5-(morpholin-4-yl)-[1,3]thiazolo[5,4-d]pyrimidin-2-yl]-[4,4′-bipyridine]-3-carboxamide] | < 100
19 | COc1cnc(Cl)cc1-c1cc(C)ncc1C(=O)Nc1nc2cnc(N3CC[C@H](O)C3)nc2s1 [Example 23, 2′-chloro-N-{5-[(3S)-3-hydroxypyrrolidin-1-yl]-[1,3]thiazolo[5,4-d]pyrimidin-2-yl}-5′-methoxy-6-methyl-[4,4′-bipyridine]-3-carboxamide] | < 100
20 | COc1cnc(Cl)cc1-c1cc(C)ncc1C(=O)Nc1nc2cnc(N3CCCC3)nc2s1 [Example 24, 2′-chloro-5′-methoxy-6-methyl-N-[5-(pyrrolidin-1-yl)-[1,3]thiazolo[5,4-d]pyrimidin-2-yl]-[4,4′-bipyridine]-3-carboxamide] | < 100
21 | COc1cnc(Cl)cc1-c1cc(C)ncc1C(=O)Nc1nc2cnc(N3CCC(F)(F)C3)nc2s1 [Example 25, 2′-chloro-N-[5-(3,3-difluoropyrrolidin-1-yl)-[1,3]thiazolo[5,4-d]pyrimidin-2-yl]-5′-methoxy-6-methyl-[4,4′-bipyridine]-3-carboxamide] | < 100
22 | COc1cnc(Cl)cc1-c1cc(C)ncc1C(=O)Nc1nc2cnc(N3CC[C@@H](O)C3)nc2s1 [Example 26, 2′-chloro-N-{5-[(3R)-3-hydroxypyrrolidin-1-yl]-[1,3]thiazolo[5,4-d]pyrimidin-2-yl}-5′-methoxy-6-methyl-[4,4′-bipyridine]-3-carboxamide] | < 100
23 | COc1cnc(Cl)cc1-c1cc(C)ncc1C(=O)Nc1nc2cnc(N3CCS(=O)(=O)CC3)nc2s1 [Example 27, 2′-chloro-N-[5-(1,1-dioxo-1λ^6-thiomorpholin-4-yl)-[1,3]thiazolo[5,4-d]pyrimidin-2-yl]-5′-methoxy-6-methyl-[4,4′-bipyridine]-3-carboxamide] | < 100
24 | COc1cnc(Cl)cc1-c1cc(C)ncc1C(=O)Nc1nc2cnc(N3CCN(C)CC3)nc2s1 [Example 28, 2′-chloro-5′-methoxy-6-methyl-N-[5-(4-methylpiperazin-1-yl)-[1,3]thiazolo[5,4-d]pyrimidin-2-yl]-[4,4′-bipyridine]-3-carboxamide] | < 100
25 | COc1cnc(Cl)cc1-c1cc(C)ncc1C(=O)Nc1nc2cnc(N3CC4(COC4)C3)nc2s1 [Example 29, 2′-chloro-5′-methoxy-6-methyl-N-(5-{2-oxa-6-azaspiro[3.3]heptan-6-yl}-[1,3]thiazolo[5,4-d]pyrimidin-2-yl)-[4,4′'-bipyridine]-3-carboxamide] | < 100
26 | COCCNc1ncc2nc(NC(=O)c3cnc(C)cc3-c3cc(Cl)ncc3OC)sc2n1 [Example 30, 2′-chloro-5′-methoxy-N-{5-[(2-methoxyethyl)amino]-[1,3]thiazolo[5,4-d]pyrimidin-2-yl}-6-methyl-[4,4′-bipyridine]-3-carboxamide] | < 100
27 | COc1cnc(Cl)cc1-c1cc(C)ncc1C(=O)Nc1nc2cnc(N3CC(O)C3)nc2s1 [Example 31, 2′-chloro-N-[5-(3-hydroxyazetidin-1-yl)-[1,3]thiazolo[5,4-d]pyrimidin-2-yl]-5′-methoxy-6-methyl-[4,4′-bipyridine]-3-carboxamide] | < 100
28 | COc1cnc(Cl)cc1-c1cc(C)ncc1C(=O)Nc1nc2cnc(N3CCC(OC)C3)nc2s1 (stereo not shown) [Example 32, 2′-chloro-5′-methoxy-N-[5-(3-methoxypyrrolidin-1-yl)-[1,3]thiazolo[5,4-d]pyrimidin-2-yl]-6-methyl-[4,4′-bipyridine]-3-carboxamide] | < 100
29 | COc1cnc(Cl)cc1-c1cc(C)ncc1C(=O)Nc1nc2cnc(N3CCC(O)CC3)nc2s1 [Example 33, 2′-chloro-N-[5-(4-hydroxypiperidin-1-yl)-[1,3]thiazolo[5,4-d]pyrimidin-2-yl]-5′-methoxy-6-methyl-[4,4′-bipyridine]-3-carboxamide] | < 100
30 | COc1cnc(Cl)cc1-c1cc(C)ncc1C(=O)Nc1nc2cnc(N3C[C@@H]4C[C@H]3CO4)nc2s1 [Example 34, 2′-chloro-5′-methoxy-6-methyl-N-{5-[(1S,4S)-2-oxa-5-azabicyclo[2.2.1]heptan-5-yl]-[1,3]thiazolo[5,4-d]pyrimidin-2-yl}-[4,4′-bipyridine]-3-carboxamide] | < 100
31 | COc1cnc(Cl)cc1-c1cc(C)ncc1C(=O)Nc1nc2cnc(N3CCCC(C#N)C3)nc2s1 (stereo not shown) [Example 35, 2′-chloro-N-[5-(3-cyanopiperidin-1-yl)-[1,3]thiazolo[5,4-d]pyrimidin-2-yl]-5′-methoxy-6-methyl-[4,4′-bipyridine]-3-carboxamide] | < 100
